Measurements taken from article PMC7354843 (Journal of medicinal chemistry, 2020).

Experiment: In vivo pharmacokinetic study, plasma and liver, single oral dose in mice
Conditions: male, ICR, mouse, plasma, 80 mg/kg

AUC(0-inf): 508 ng·h/mL
Cmax: 17.2 ng/mL
Compound: O=c1c2ccc(Oc3ccc(OC(F)(F)F)cc3)cc2[nH]c2cc(Cl)cc(F)c12 [Compound 26, 3-Chloro-1-fluoro-6-(4-(trifluoromethoxy)phenoxy)acridin-9(10H)-one]
